Source: US6914045B2, “Glycopeptide antibiotics” (Wyeth Holdings Corporation, priority 2001, dated 2005)
In brackets after ≈: the same amount, converted by molar mass.

What was measured:
Test in all cases: in vitro antibacterial evaluation, MIC by broth dilution
Format in all cases: cell-based
Staphylococcus sp. = conditions: broth dilution, 18 hours at 35° C.
Outline: (§1)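 MIC, the lowest antibiotic concentration preventing growth, was read across 64-0.06 μg/mL with 5×10^5 CFU/mL inoculum. Method followed NCCLS M7-A2 broth dilution using Mueller-Hinton II; Gram-positive strains covered recent methicillin-, penicillin- and/or vancomycin-resistant clinical isolates.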

Enterococcus sp. = conditions: broth dilution, 18 hours at 35° C.
Outline: as §1

Streptococcus sp. = conditions: broth dilution, 18 hours at 35° C.
Outline: as §1

Escherichia coli = conditions: 18 hours at 35° C.
Outline: as §1

With CC(c1ccccc1)C1NC(=O)CNC(=O)C(CO)NC(=O)C(C(O)C2CNC(=N)N2C2OC(CO)C(O)C(O)C2O)NC(=O)C(C(O)C2CNC(=N)N2)NC(=O)C(Cc2ccc(OC3OC(CO)C(OC4OC(CO)C(O)C5OC(c6ccccc6)OC45)C(O)C3O)cc2)NC1=O (single isomer, unassigned) [Example 104a, Cyclo[glycyl-β-methylphenylalanyl-O-[4-O-(2,3-O-benzylidenehexopyranosyl)hexopyranosyl]-tyrosyl-3-(2-iminoimidazolidin-4-yl)seryl-3-(3-hexopyranosyl-2-iminoimidazolidin-4-yl)-serylseryl]] the “MIC Coagulase Negative Staphylococcus (GC 4547)” value (Staphylococcus sp.) was 32 µg/mL (≈ 23.1 µM), the “MIC Coagulase Negative Staphylococcus (GC 4548)” value (Staphylococcus sp.) was 16 to 32 µg/mL and the “MIC Coagulase Negative Staphylococcus (GC 4549)” value (Staphylococcus sp.) was 16 to 32 µg/mL. The “MIC Coagulase Negative Staphylococcus (GC 4551)” value (Staphylococcus sp.) was 32 µg/mL (≈ 23.1 µM), the “MIC Coagulase Negative Staphylococcus (GC 6257)” value (Staphylococcus sp.) was 16 µg/mL (≈ 11.6 µM) and the “MIC Staphylococcus aureus (ATCC 29213)” value (Staphylococcus sp.) was 0.5 to 64 µg/mL. For the same compound, the “MIC Staphylococcus aureus (GC 1131)” value (Staphylococcus sp.) was 0.5 to 64 µg/mL, the “MIC Staphylococcus aureus (GC 3051)” value (Staphylococcus sp.) was 0.5 µg/mL (≈ 0.361 µM) and the “MIC Staphylococcus aureus (GC 3053)” value (Staphylococcus sp.) was 0.5 µg/mL (≈ 0.361 µM). The “MIC Staphylococcus aureus (GC 4541)” value (Staphylococcus sp.) was 0.5 to 32 µg/mL, the “MIC Staphylococcus aureus (GC 4542)” value (Staphylococcus sp.) was 0.5 µg/mL (≈ 0.361 µM) and the “MIC Staphylococcus aureus (GC 4544)” value (Staphylococcus sp.) was 0.5 µg/mL (≈ 0.361 µM). The “MIC Staphylococcus aureus (GC 4545)” value (Staphylococcus sp.) was 0.5 µg/mL (≈ 0.361 µM), the “MIC Staphylococcus aureus-SMITH (GC 4543)” value (Staphylococcus sp.) was 0.5 to 64 µg/mL and the “MIC Staphylococcus haemolyticus (GC 4546)” value (Staphylococcus sp.) was 32 µg/mL (≈ 23.1 µM). The “MIC Staphylococcus haemolyticus (GC 4546)” value (Staphylococcus sp.; strain GC 4546) was 32 µg/mL (≈ 23.1 µM), the “MIC Coagulase Negative Staphylococcus (GC 4547)” value (Staphylococcus sp.; strain GC 4547) was 32 µg/mL (≈ 23.1 µM) and the “MIC Coagulase Negative Staphylococcus (GC 4548)” value (Staphylococcus sp.; strain GC 4548) was 16 to 32 µg/mL. The “MIC Coagulase Negative Staphylococcus (GC 4549)” value (Staphylococcus sp.; strain GC 4549) was 16 to 32 µg/mL, the “MIC Coagulase Negative Staphylococcus (GC 4551)” value (Staphylococcus sp.; strain GC 4551) was 32 µg/mL (≈ 23.1 µM) and the “MIC Coagulase Negative Staphylococcus (GC 6257)” value (Staphylococcus sp.; strain GC 6257) was 16 µg/mL (≈ 11.6 µM). For the same compound, the “MIC Staphylococcus aureus-SMITH (GC 4543)” value (Staphylococcus sp.; strain SMITH GC 4543) was 0.5 to 64 µg/mL, the “MIC Staphylococcus aureus (ATCC 29213)” value (Staphylococcus sp.; strain ATCC 29213) was 0.5 to 64 µg/mL and the “MIC Staphylococcus aureus (GC 1131)” value (Staphylococcus sp.; strain GC 1131) was 0.5 to 64 µg/mL. For the same compound, the “MIC Staphylococcus aureus (GC 3051)” value (Staphylococcus sp.; strain GC 3051) was 0.5 µg/mL (≈ 0.361 µM), the “MIC Staphylococcus aureus (GC 3053)” value (Staphylococcus sp.; strain GC 3053) was 0.5 µg/mL (≈ 0.361 µM) and the “MIC Staphylococcus aureus (GC 4541)” value (Staphylococcus sp.; strain GC 4541) was 0.5 to 32 µg/mL. For the same compound, the “MIC Staphylococcus aureus (GC 4542)” value (Staphylococcus sp.; strain GC 4542) was 0.5 µg/mL (≈ 0.361 µM), the “MIC Staphylococcus aureus (GC 4544)” value (Staphylococcus sp.; strain GC 4544) was 0.5 µg/mL (≈ 0.361 µM) and the “MIC Staphylococcus aureus (GC 4545)” value (Staphylococcus sp.; strain GC 4545) was 0.5 µg/mL (≈ 0.361 µM). The “MIC Enterococcus avium (GC 4558)” value (Enterococcus sp.; Enterococcus avium (GC 4558)) was over 64 µg/mL, the “MIC Enterococcus faecalis (ATCC 29212)” value (Enterococcus sp.; Enterococcus faecalis (ATCC 29212)) was over 64 µg/mL and the “MIC Enterococcus faecalis (GC 2242)” value (Enterococcus sp.; Enterococcus faecalis (GC 2242)) was over 64 µg/mL. The “MIC Enterococcus faecalis (GC 2691)” value (Enterococcus sp.; Enterococcus faecalis (GC 2691)) was over 0.5 µg/mL, the “MIC Enterococcus faecalis (GC 3059)” value (Enterococcus sp.; Enterococcus faecalis (GC 3059)) was over 0.5 µg/mL and the “MIC Enterococcus faecalis (GC 4552)” value (Enterococcus sp.; Enterococcus faecalis (GC 4552)) was over 0.5 µg/mL. For the same compound, the “MIC Enterococcus faecalis (GC 4553)” value (Enterococcus sp.; Enterococcus faecalis (GC 4553)) was over 0.5 µg/mL, the “MIC Enterococcus faecalis (GC 4554)” value (Enterococcus sp.; Enterococcus faecalis (GC 4554)) was over 0.5 µg/mL and the “MIC Enterococcus faecalis (GC 6189)” value (Enterococcus sp.; Enterococcus faecalis (GC 6189)) was over 64 µg/mL. For the same compound, the “MIC Enterococcus faecium (GC 2243)” value (Enterococcus sp.; Enterococcus faecium (GC 2243)) was over 64 µg/mL, the “MIC Enterococcus faecium (GC 4556)” value (Enterococcus sp.; Enterococcus faecium (GC 4556)) was over 64 µg/mL and the “MIC Enterococcus faecium (GC 4557)” value (Enterococcus sp.; Enterococcus faecium (GC 4557)) was 0.5 µg/mL (≈ 0.361 µM). For the same compound, the “MIC Enterococcus faecalis (ATCC 29212)” value (Enterococcus sp.; strain ATCC 29212) was over 64 µg/mL, the “MIC Enterococcus faecalis (GC 2242)” value (Enterococcus sp.; strain GC 2242) was over 64 µg/mL and the “MIC Enterococcus faecium (GC 2243)” value (Enterococcus sp.; strain GC 2243) was over 64 µg/mL. The “MIC Enterococcus faecalis (GC 2691)” value (Enterococcus sp.; strain GC 2691) was over 0.5 µg/mL, the “MIC Enterococcus faecalis (GC 3059)” value (Enterococcus sp.; strain GC 3059) was over 0.5 µg/mL and the “MIC Enterococcus faecalis (GC 4552)” value (Enterococcus sp.; strain GC 4552) was over 0.5 µg/mL. The “MIC Enterococcus faecalis (GC 4553)” value (Enterococcus sp.; strain GC 4553) was over 0.5 µg/mL, the “MIC Enterococcus faecalis (GC 4554)” value (Enterococcus sp.; strain GC 4554) was over 0.5 µg/mL and the “MIC Enterococcus faecium (GC 4556)” value (Enterococcus sp.; strain GC 4556) was over 64 µg/mL. For the same compound, the “MIC Enterococcus faecium (GC 4557)” value (Enterococcus sp.; strain GC 4557) was 0.5 µg/mL (≈ 0.361 µM), the “MIC Enterococcus avium (GC 4558)” value (Enterococcus sp.; strain GC 4558) was over 64 µg/mL and the “MIC Enterococcus faecalis (GC 6189)” value (Enterococcus sp.; strain GC 6189) was over 64 µg/mL. The “MIC Streptococcus agalactiae (GC 4564)” value (Streptococcus sp.; Streptococcus agalactiae (GC 4564)) was 0.5 µg/mL (≈ 0.361 µM), the “MIC Streptococcus pneumoniae (ATCC 6301)” value (Streptococcus sp.; Streptococcus pneumoniae (ATCC 6301)) was 0.12 to 16 µg/mL and the “MIC Streptococcus pneumoniae (GC 1894)” value (Streptococcus sp.; Streptococcus pneumoniae (GC 1894)) was 0.12 to 8 µg/mL. For the same compound, the “MIC Streptococcus pneumoniae (GC 4565)” value (Streptococcus sp.; Streptococcus pneumoniae (GC 4565)) was 0.12 µg/mL (≈ 0.0867 µM), the “MIC Streptococcus pyogenes (GC 4563)” value (Streptococcus sp.; Streptococcus pyogenes (GC 4563)) was 0.12 µg/mL (≈ 0.0867 µM) and the “MIC Streptococcus pneumoniae (ATCC 6301)” value (Streptococcus sp.; strain ATCC 6301) was 0.12 to 16 µg/mL. For the same compound, the “MIC Streptococcus pneumoniae (GC 1894)” value (Streptococcus sp.; strain GC 1894) was 0.12 to 8 µg/mL, the “MIC Streptococcus pyogenes (GC 4563)” value (Streptococcus sp.; strain GC 4563) was 0.12 µg/mL (≈ 0.0867 µM) and the “MIC Streptococcus agalactiae (GC 4564)” value (Streptococcus sp.; strain GC 4564) was 0.5 µg/mL (≈ 0.361 µM). The “MIC Streptococcus pneumoniae (GC 4565)” value (Streptococcus sp.; strain GC 4565) was 0.12 µg/mL (≈ 0.0867 µM), the “MIC Escherichia coli (ATCC 25922)” value (Escherichia coli; strain ATCC 25922) was over 64 µg/mL and the “MIC Escherichia coli (GC 4559)” value (Escherichia coli; strain GC 4559) was over 64 µg/mL. The “MIC Escherichia coli (GC 4560)” value (Escherichia coli; strain GC 4560) was 0.5 to 16 µg/mL.
